Laboratory results taken from patent publication US20260274794A1, “COMPOUNDS, COMPOSITIONS, AND METHOD OF INHIBITING TAU PROTEIN AND ALPHASYNUCLEIN AGGREGATION” (Purdue Research Foundation, priority 2023, published 2026).
“Also recorded” adds a separate entry of the source.

Key:
[1] = target: T1, α-syn (Homo sapiens, UniProt P37840); experiment: Transmission electron microscopy of α-syn fibrils; assay type: biochemical; settings: 60 μM α-syn: 600 μM compound, 24-hours exposure
Protocol: (§1) For the examination of ultrastructural changes, 60 μM of proteins (α-syn and tau isoform 2N4R) in contact with DMSO or 600 μM of compound were incubated in a 10 mM PBS buffer (pH 7.4) for 24 h at 37° C. (molar ratio 1:10). Samples at the end of tau ThT kinetics of fibril formation were also analyzed at similar molar ratio with 6 time less concentrated samples. For the preparation of grids prior examination, a volume of 10 μL if each sample was applied on a 400-mesh Formvar-carbon-coated copper grid (Electron Microscopy Sciences, Hatfield, PA). The grids were incubated for 1 minute with the sample and after washed three times with distilled water, After being air-dried, a fresh solution of 1% uranyl acetate was applied for 1 minute. Solution was absorbed with filter paper and grids were air-dried. Evaluation of grids were performed using a transmission microscope (JEOL 1400 Flash, Japan). Transmission electron micrographs were captured using an accelerating voltage of 100 kV and magnification of 40 k.
(§2) To confirm that the reduction of ThT fluorescence observed with compounds 2, 8, and 17 was due to the reduction in protein fibrillization rather than interference with ThT [31], transmission electron microscopy (TEM) of α-syn and tau isoform 2N4R with these same compounds was utilized to visualize direct changes in α-syn and tau isoform 2N4R fibril morphology after 24-hours exposure (FIG. 5). […] Results were reproduced using the tau isoform 2N4R and different compounds at the above-mentioned higher concentrations using the identical molar ratio and incubation time. […] Compound 2 was the only candidate resulting in a grid quasi exempt of fibrils.

[2] = target: T2, α-synuclein (α-syn) (Homo sapiens, UniProt P37840); experiment: Thioflavin T (ThT) fluorescence assay of α-syn fibril formation; assay type: biochemical; settings: compound 100 μM; ThT fluorescence intensity at plateau phase, control = 100%
T2 construct: purchased rPeptide, LLC (Watkinsville, GA)
Protocol: ThT fluorescence is routinely established assay to follow the kinetics of α-syn fibril formation with different drug candidate treatments. Compounds were first tested at a final of concentration of 100 μM and α-syn and 2N4R tau were prepared at 2 μM and 6 μM, respectively. Compounds with highest anti-fibrillary activity were tested at 3.125, 6.25, 12.5, 25, 50, and 100 μM to obtain dose-response curves.
For the α-syn ThT assay, ThT was used at a final concentration of 20 μM. α-Syn was dissolved in 20 mM Tris-HCl (pH 7.4) supplemented with 100 mM NaCl to a stock solution of 280 μM (1 mg/250 μL) prior to resuspension in ThT buffer to obtain a final concentration of 2 μM. Compounds and ThT were first added to the wells. The kinetics of fibril formation begin when the α-syn was solubilized in the ThT buffer (10 mM PBS buffer (pH 7.4), supplemented with 0.5 mM SDS and 300 mM NaCl) and added to a non-treated black 96 well microplate with a transparent flat bottom. Each well was filled with a maximum volume of 150 μL buffer with one 3 mm borosilicate bead. The background fluorescence signal consisted of ThT in buffer and 0.25% DMSO without α-syn. The excitation and emission wavelengths were set at 440 and 485 nm, respectively, with a Synergy HT multi-mode microplate reader (BioTek, Winooski, VT). Measurements were taken at 37° C. every 20 minutes over 50 hours of shaking prior to reading the plate. Samples were measured in three replicates and the experiments were repeated three times using different α-syn stock solutions. For each time point, the background fluorescence signal was subtracted. Arbitrary units of fluorescence were calculated from the mean values normalized against the maximum value in each completed assay. Arbitrarily, the maximum value (100%) for the fluorescence intensity was established for α-syn.
Compounds were tested at 100 μM with α-syn at 6 μM, resulting in a molar ratio of approximately 1:16 (protein:compound). The plateau phase of sigmoidal kinetics is of particular interest because it is the phase in which mature fibrils form and where aggregation and disaggregation are at equilibrium with each other; therefore, the fluorescence intensity between multiple compounds at the plateau phase can be compared to identify the compounds with the most promising anti-aggregation activity (Table 1, column α-syn ThT %). […] Compound 17 was the best representative of the 5-aminoindole series and moved to the tier-2 assays, even though the resulting ThT percentage of fluorescence intensity was 10% higher than the cut off. These compounds were then tested on tau 2N4R ThT fluorescence assays.

[3] = target: T1, α-syn; experiment: Western blot (anti-oligo A11, anti-α-syn) of uncross-linked α-syn; assay type: biochemical; settings: compound 600 μM, α-syn 60 μM, 37° C., 24 hours
Protocol: To validate the PICUP results, the uncross linked α-syn (produced in Dr. Rochet lab) was incubated at a final concentration of 60 μM in 10 mM phosphate buffer (pH 7.4) with the presence of vehicle (1.5% DMSO), the amide compounds of interest (Compounds 2, 8, 17), and the weak anti-fibrillization inhibitor (compound 13). Compounds were tested at a final concentration of 600 μM (molar ratio 1:10). Samples were incubated for 24 h and 48 h with constant shaking 300 rpm at 37° C. (VWR Thermal Shake Touch, Troemner, LLC, Thorofare, NJ). After completion of the incubation time, samples were mixed with one third volume of above-mentioned loading buffer and separated by electrophoresis in a 16% SDS-Page gel. […] Nitrocellulose membranes were exposed to the monoclonal antibodies diluted at 1/1000 using a 5% non-fat dried milk with TBS and 0.1% Tween-20 (TBS-T) for 12 h at 4° C. Peroxidase conjugated secondary antibodies consisted of an anti-rabbit (Rockland Immunochemicals, inc., Pottstown, PA, cat. #611-1322-0100) and an anti-mouse (Rockland, cat. #610-1319-0100) utilized at a dilution of 1/5000 in 5% non-fat dried milk with TBS-T for one hour at room temperature. The membranes were then exposed to a 1:1 ratio of enhanced chemiluminescent solution (Thermo Scientific, Rockford, IL, cat. #32209) for one minute before the acquisition of images using a SynGene G;Box scanner (model Chemi XR 5 and the G:Box Chemi-XRQ GENESYS software.
One limitation of the PICUP is the generation of free radicals which can be quenched by aromatic compounds resulting in false positives. For this reason, results obtained by PICUP were validated using the uncross-linked α-syn. High concentration of different compounds (600 μM; molar ratio of 1:10) were incubated at 37° C. for 24 hours with 60 μM of α-syn and separated by electrophoresis in 16% SDS-PAGE gels. Western blots using polyclonal anti-oligo A11 and monoclonal anti-α-syn were assessed to detect the high molecular weight oligomers and monomeric α-syn, respectively.

[4] = Kinetics of solubility in ThT buffer; assay type: physicochemical; settings: ThT buffer: 1×PBS pH 7.4, 300 mM NaCl, 0.5 mM SDS
Protocol: Kinetics of solubility analysis was performed at the MSU Medicinal Chemistry Core facility.

[5] = target: T3, tau isoform 2N4R (Homo sapiens, UniProt P10636); experiment: Transmission electron microscopy of tau isoform 2N4R fibrils; assay type: biochemical; settings: compound 100 μM, 50-hours exposure; reproduced at higher concentrations, molar ratio 1:10
T3 construct: made in house; host or cells: E. coli BL21 (DE3), vector pRK172
Protocol: as §1, §2

T3 sequence (P10636 1-441 isoform P10636-8): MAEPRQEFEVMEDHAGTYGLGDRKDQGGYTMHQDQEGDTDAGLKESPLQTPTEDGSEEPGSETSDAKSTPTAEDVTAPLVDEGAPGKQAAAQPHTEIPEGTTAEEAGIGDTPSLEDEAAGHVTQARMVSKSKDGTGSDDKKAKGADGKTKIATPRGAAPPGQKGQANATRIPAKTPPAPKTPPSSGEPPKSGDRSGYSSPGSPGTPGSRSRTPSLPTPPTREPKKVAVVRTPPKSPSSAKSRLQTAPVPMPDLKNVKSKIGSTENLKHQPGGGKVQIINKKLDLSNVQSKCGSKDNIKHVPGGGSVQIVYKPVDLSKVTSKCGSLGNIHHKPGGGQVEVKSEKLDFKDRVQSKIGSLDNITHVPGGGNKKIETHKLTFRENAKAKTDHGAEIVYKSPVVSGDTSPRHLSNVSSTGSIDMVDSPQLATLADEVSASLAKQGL

remaining activity at 100 µM [2] [%]	Measured Solubility [4] [µM]	Compound	α-syn fibril morphology (TEM) [1]	oligomeric species bands of uncross-linked α-syn (Western blot) [3]	tau isoform 2N4R fibril morphology (TEM) [5]
≤ 30	>300	O=C(Nc1cccc2[nH]ccc12)c1ccc(F)cc1 [Compound 8, 4-fluoro-N-(1H-indol-4-yl)benzamide]	clear effect in reducing α-syn fibrillization; also recorded: most drastic effect, with immature fibrils surrounded by irregular globular structures	narrow, less intense bands compared to control	levels of tau fibril at 20 μM were reduced
≤ 30	>300	O=C(Nc1cccc2[nH]ccc12)c1ccccc1 [Compound 2, N-(1H-indol-4-yl)benzamide]	clear effect in reducing α-syn fibrillization	narrow, less intense bands compared to control	levels of tau fibril at 20 μM were reduced; also recorded: Fewer and not well-defined fibrils
73.7 ± 5.6	>300	O=C(Nc1ccc2[nH]ccc2c1)c1ccccc1Cl [Compound 13, 2-chloro-N-(1H-indol-5-yl)benzamide]	mature fibrils after 24 hours	did not reduce the intensity of the bands	long fibrils admixed with amorphous materials and/or debris
